The values below are quoted from earlier work in US6995188B2 (priority 2002, dated 2006).

Data set [1] relates to P388 lymphocytic leukemia cells. Conditions: mouse, in vivo, ip, cited from earlier work.
In data set [2] the test system is APL and non-APL cell lines. Conditions: compared with arsenic trioxide; cited from earlier work.
The subject of data set [3] is patients with advanced leukemia. Conditions: 8 patients, 3 days per week for 3 consecutive weeks; cited from earlier work.

Where two headings read alike, the source gives them in different places.

As for “2,3,4,6-tetra-O-acetyl-1-S-hydroxyethylmethyl-1-thio-β-D-glucopyranose [Compound 4]”, the “% T/C” value in data set [1] (100 mg/kg) is 116%.

On to `C[As](C)SCC(N)C(=O)O` (racemic) [Compound 10, S-dimethylarsino-DL-cysteine], for which the “% T/C” value in data set [1] (50 mg/kg) is 110%.

For `CCCC[As](CCCC)S[C@@H]1O[C@H](COC(C)=O)[C@@H](OC(C)=O)[C@H](OC(C)=O)[C@H]1OC(C)=O` [Compound 1, 2,3,4,6-tetra-O-acetyl-1-S-dibutylarsino-1-thio-β-D-glucopyranose], in data set [1] (100 mg/kg), the “% T/C” value is reported as 117%.

`CCC[As](CCC)S[C@@H]1O[C@H](COC(C)=O)[C@@H](OC(C)=O)[C@H](OC(C)=O)[C@H]1OC(C)=O` [Compound 2, 2,3,4,6-tetra-O-acetyl-1-S-dipropylarsino-1-thio-β-D-glucopyranose]: the “% T/C” value in data set [1] (200 mg/kg) is 124%.

In the case of `CC[As](CC)S[C@@H]1O[C@H](COC(C)=O)[C@@H](OC(C)=O)[C@H](OC(C)=O)[C@H]1OC(C)=O` [Compound 3, 2,3,4,6-tetra-O-acetyl-1-S-diethylarsino-1-thio-β-D-glucopyranose], the “% T/C” value in data set [1] (100 mg/kg) was 180%.

In the case of `CCCCCCCCCCCCCCCC[As](CCCCCCCCCCCCCCCC)S[C@@H]1O[C@H](COC(C)=O)[C@@H](OC(C)=O)[C@H](OC(C)=O)[C@H]1OC(C)=O` [Compound 5, 2,3,4,6-tetra-O-acetyl-1-S-dihexadecylarsino-1-thio-β-D-glucopyranose], the “% T/C” value in data set [1] (50 mg/kg) was 125%.

As for `CC(=O)OC[C@H]1O[C@@H](S[As](C2CCCCC2)C2CCCCC2)[C@H](OC(C)=O)[C@@H](OC(C)=O)[C@@H]1OC(C)=O` [Compound 6, 2,3,4,6-tetra-O-acetyl-1-S-dicyclohexylarsino-1-thio-β-D-glucopyranose], the “% T/C” value in data set [1] (400 mg/kg) is on record as “Toxic”.

Take `CC(C)CCC[C@@H](C)[C@H]1CC[C@H]2[C@@H]3CC=C4C[C@@H]([Se][As](C)C)CC[C@]4(C)[C@H]3CC[C@]12C` [Compound 15, Se-dimethylarsino-selenocholesterol]: the “% T/C” value in data set [1] (200 mg/kg) is 129%.

Consider `CC(=O)OC[C@H]1O[C@@H](S[As](C)C)[C@H](OC(C)=O)[C@@H](OC(C)=O)[C@H]1OC(C)=O` [Compound 16, 2,3,4,6-tetra-O-acetyl-1-S-dimethylarsino-1-thio-β-D-galactopyranose], for which the “% T/C” value in data set [1] (100 mg/kg) is 129%.

For the compound `CC(=O)N[C@@H]1[C@@H](OC(C)=O)[C@H](OC(C)=O)[C@@H](COC(C)=O)O[C@H]1S[As](C)C` [Compound 18, 2-acetamido-3,4,6-tri-O-acetyl-2-deoxy-1-S-dimethylarsino-1-thio-β-D-glucopyranose], the “% T/C” value in data set [1] (50 mg/kg) is 136%.

`CC(=O)N[C@H]1[C@@H](OC(C)=O)O[C@H](CS[As](C)C)[C@@H](OC(C)=O)[C@@H]1OC(C)=O` [Compound 20, 2-acetamido-1,3,4-tri-O-acetyl-2-deoxy-6-S-dimethylarsino-6-thio-α-D-glucopyranose]: the “% T/C” value in data set [1] (100 mg/kg) is given as 136%.

Turning to `Nc1nc(N)nc(Nc2ccc([As]3SCC(CO)S3)cc2)n1` (centres unmarked) [melarsoprol], the “activity against APL and non-APL cell lines” value in data set [2] is “activity at least equivalent to that of arsenic trioxide”. In data set [3], the antitumor effects entry is reported as “Only one patient (with chronic lymphocytic leukemia) displayed antitumor effects” and the side effects entry was “most experienced neurological side effects”.
